Test [1] relates to Rabbit Psoas myofibrils (skeletal myosin ATPase). In words: Myofibril ATPase assay, rabbit psoas (skeletal) myofibrils. The class given is biochemical. Conditions: rabbit psoas myofibrils. The method, boiled down:
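Myofibrils homogenized in Triton X-100 buffer were assayed in pH 7.0 PIPES with defined Ca2+/EGTA. Myosin-driven ADP formation was coupled to NADH oxidation, with depletion monitored at 340 nm. Each value is the concentration that lowers activity to 75% of vehicle or, for activators, raises it to 125%.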

Test [2] has as its system Porcine atria myofibrils (atrial myosin ATPase). Description: Myofibril ATPase assay, porcine atria myofibrils. Conditions: porcine atria myofibrils. Format: biochemical. The method, boiled down: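 Values are Y75 (concentration cutting ATPase activity to 75% of vehicle) or Y125 (raising it to 125%), taken from 4-parameter logistic fits. Rates come from NADH disappearance at 340 nm in a PK/LDH-coupled assay with porcine atria myofibrils.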

Test [3] deals with T1, Porcine ventricle myofibrils (ventricular myosin ATPase) (Sus scrofa, UniProt P79293).
T1 construct: Myofibrils from porcine cardiac muscle was isolated from the left ventricle of Yucatan minipigs; tissue Exemplar Genetics; host or cells: left ventricle of Yucatan minipigs, myofibrils prepared in house
Description: Myofibril ATPase assay, porcine ventricle myofibrils. The class given is biochemical, porcine (Yucatan minipigs). Conditions: porcine ventricle myofibrils. The essentials: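 In a coupled enzyme format, ADP from myofibril ATPase drives NADH oxidation, monitored kinetically at 340 nm for 75 min using minipig ventricle myofibrils. Effective concentrations giving 25% loss or gain of activity relative to vehicle were calculated from 4-parameter fits.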

Where [4] appears, read: Y75 value (75% activity relative to no compound).

T1 sequence (P79293 whole entry): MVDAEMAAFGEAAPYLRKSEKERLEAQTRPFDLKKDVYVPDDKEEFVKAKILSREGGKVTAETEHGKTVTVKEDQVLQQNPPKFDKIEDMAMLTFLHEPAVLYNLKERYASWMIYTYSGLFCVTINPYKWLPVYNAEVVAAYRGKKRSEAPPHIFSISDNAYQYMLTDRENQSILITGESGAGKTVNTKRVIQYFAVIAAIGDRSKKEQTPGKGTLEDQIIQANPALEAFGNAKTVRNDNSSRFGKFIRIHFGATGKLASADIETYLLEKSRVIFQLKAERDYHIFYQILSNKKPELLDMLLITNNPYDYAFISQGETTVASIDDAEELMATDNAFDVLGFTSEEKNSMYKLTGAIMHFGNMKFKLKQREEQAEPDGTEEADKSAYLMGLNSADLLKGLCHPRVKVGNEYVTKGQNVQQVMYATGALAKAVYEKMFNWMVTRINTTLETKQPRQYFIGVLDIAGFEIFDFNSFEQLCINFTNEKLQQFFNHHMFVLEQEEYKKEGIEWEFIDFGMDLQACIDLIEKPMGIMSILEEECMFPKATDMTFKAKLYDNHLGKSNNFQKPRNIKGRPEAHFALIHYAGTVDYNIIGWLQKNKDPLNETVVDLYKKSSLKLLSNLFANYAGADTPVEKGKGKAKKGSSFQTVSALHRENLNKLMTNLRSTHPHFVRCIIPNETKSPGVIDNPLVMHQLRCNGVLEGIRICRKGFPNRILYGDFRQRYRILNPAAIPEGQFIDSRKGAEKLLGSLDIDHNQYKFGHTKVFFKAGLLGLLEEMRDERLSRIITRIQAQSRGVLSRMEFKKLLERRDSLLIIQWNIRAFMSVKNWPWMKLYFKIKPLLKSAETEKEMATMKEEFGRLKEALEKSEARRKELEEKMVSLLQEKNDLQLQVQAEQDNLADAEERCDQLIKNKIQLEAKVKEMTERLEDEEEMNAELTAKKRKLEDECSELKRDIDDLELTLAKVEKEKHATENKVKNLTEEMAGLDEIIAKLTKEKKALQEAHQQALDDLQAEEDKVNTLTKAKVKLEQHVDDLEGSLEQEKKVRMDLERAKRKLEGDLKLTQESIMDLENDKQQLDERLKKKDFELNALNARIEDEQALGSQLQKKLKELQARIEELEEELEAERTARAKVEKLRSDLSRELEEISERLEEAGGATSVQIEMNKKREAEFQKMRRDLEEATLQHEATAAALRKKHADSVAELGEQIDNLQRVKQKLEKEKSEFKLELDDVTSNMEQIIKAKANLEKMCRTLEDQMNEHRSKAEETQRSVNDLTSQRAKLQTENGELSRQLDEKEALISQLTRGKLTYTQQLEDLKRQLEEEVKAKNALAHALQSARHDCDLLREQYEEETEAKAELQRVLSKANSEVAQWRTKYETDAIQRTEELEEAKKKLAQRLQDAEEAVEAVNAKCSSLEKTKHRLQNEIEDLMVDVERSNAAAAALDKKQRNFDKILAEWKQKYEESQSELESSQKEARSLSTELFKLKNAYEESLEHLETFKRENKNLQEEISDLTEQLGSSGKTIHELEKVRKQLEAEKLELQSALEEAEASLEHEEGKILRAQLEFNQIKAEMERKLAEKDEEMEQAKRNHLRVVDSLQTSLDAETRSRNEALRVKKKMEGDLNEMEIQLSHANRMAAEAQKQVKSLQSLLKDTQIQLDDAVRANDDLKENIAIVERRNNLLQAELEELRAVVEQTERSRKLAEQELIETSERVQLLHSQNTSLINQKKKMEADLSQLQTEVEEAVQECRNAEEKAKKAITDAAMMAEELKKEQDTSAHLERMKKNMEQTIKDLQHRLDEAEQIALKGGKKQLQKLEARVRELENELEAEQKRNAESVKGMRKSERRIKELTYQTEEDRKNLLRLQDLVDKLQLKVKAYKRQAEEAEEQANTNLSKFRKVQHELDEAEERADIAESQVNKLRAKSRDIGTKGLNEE

In the case of `Cc1ccc2[nH]c(=O)c(CC(=O)N[C@H](C)c3ncc(C#N)cn3)cc2c1F` (single isomer, unassigned) [compound 2013], the “Skeletal EC25” value in test [1] (Y75 value (no ‡ mark)) is 13050 nM. The “Atrial EC25” value in test [2] (Y75 value (no ‡ mark)) came to 16080 nM. Besides, the “Ventricular EC25” value in test [3] (Y75 value (no ‡ mark)) came to 100000 nM.

Regarding `Cc1nccc2[nH]c(=O)c(CC(=O)N[C@H](CO)c3ccncc3)c(C)c12` [compound 292], in test [1] (Y75 value), the “Skeletal EC25” value turned out to be 100000 nM. Also, in test [2] (setting [4]), the “Atrial EC25” value is 100000 nM. Moreover, the “Ventricular EC25” value in test [3] (Y75 value) was 100000 nM.

Turning to `C[C@@H](NC(=O)Cc1cc2c(F)cccc2[nH]c1=O)c1ccc(C#N)cn1` [compound 47], the “Skeletal EC25” value in test [1] (Y75 value (no ‡ mark)) was 430 nM. Besides, the “Atrial EC25” value in test [2] (Y75 value (no ‡ mark)) is 4480 nM. In test [3] (Y75 value (no ‡ mark)), the “Ventricular EC25” value was determined as 4800 nM.

With `C[C@H](NC(=O)Cc1c(C(F)(F)F)c2cc(F)ccc2[nH]c1=O)c1ccc(F)cc1F` [compound 115], in test [1] (Y75 value (no ‡ mark)), the “Skeletal EC25” value was determined as 20 nM. Moreover, the “Atrial EC25” value in test [2] (Y75 value (no ‡ mark)) came out at 50 nM. For the same molecule, the “Ventricular EC25” value in test [3] (Y75 value (no ‡ mark)) was 320 nM.

On to `Cc1c(CC(=O)N[C@@H](C)c2ccc(C#N)nn2)c(=O)[nH]c2ccc(F)c(C3CC3)c12` (single isomer, unassigned) [compound 2058], for which the “Skeletal EC25” value in test [1] (Y75 value (no ‡ mark)) was 3150 nM. The “Atrial EC25” value in test [2] (Y75 value (no ‡ mark)) worked out at 100000 nM. In test [3] (Y75 value (no ‡ mark)), the “Ventricular EC25” value was 68080 nM.

`C[C@H](NC(=O)Cc1cc2c(Cl)nccc2[nH]c1=O)c1ccc(F)cc1F` [compound 439]: the “Skeletal EC25” value in test [1] (Y75 value) turned out to be 100 nM. In addition, the “Atrial EC25” value in test [2] (setting [4]) was 60 nM. Besides, in test [3] (Y75 value), the “Ventricular EC25” value came out at 470 nM.

With `COc1ccc2[nH]c(=O)c(CC(=O)N[C@@H](C)c3ncc(F)cc3F)cc2c1C` (single isomer, unassigned) [compound 80], the “Skeletal EC25” value in test [1] (Y75 value (no ‡ mark)) was determined as 18540 nM. Moreover, in test [2] (Y75 value (no ‡ mark)), the “Atrial EC25” value stood at 100000 nM. In test [3] (Y75 value (no ‡ mark)), the “Ventricular EC25” value was 100000 nM.

For the molecule `Cc1c(CC(=O)N[C@@H](C)c2cnc(C#N)cn2)c(=O)[nH]c2cc(F)c(F)cc12` [compound 1103], the “Skeletal EC25” value in test [1] (Y75 value (no ‡ mark)) turned out to be 60 nM. Also, the “Atrial EC25” value in test [2] (Y75 value (no ‡ mark)) was 400 nM. Moreover, the “Ventricular EC25” value in test [3] (Y75 value (no ‡ mark)) was 1070 nM.

For the molecule `C[C@H](NC(=O)Cc1c(C2CC2)c2cnccc2[nH]c1=O)c1ncc(C#N)cc1F` [compound 143], in test [1] (Y75 value), the “Skeletal EC25” value stood at 610 nM. Moreover, the “Atrial EC25” value in test [2] (setting [4]) was determined as 960 nM. The “Ventricular EC25” value in test [3] (Y75 value) was 6560 nM.

Consider `Cc1c(C2(C(=O)N[C@H](C)c3ncc(C#N)cn3)CC2)c(=O)[nH]c2ccc(F)c(C#N)c12` (single isomer, unassigned) [compound 2531], for which the “Skeletal EC25” value in test [1] (Y75 value (no ‡ mark)) was determined as 2080 nM. For the same molecule, the “Atrial EC25” value in test [2] (Y75 value (no ‡ mark)) came to 1290 nM. For the same molecule, the “Ventricular EC25” value in test [3] (Y75 value (no ‡ mark)) is 15110 nM.

Take `Cc1c(CC(=O)N[C@H](C)c2ncc(C#N)cn2)c(=O)[nH]c2ccc(F)c(C#N)c12` (single isomer, unassigned) [compound 2015]: in test [1] (Y75 value (no ‡ mark)), the “Skeletal EC25” value turned out to be 150 nM. Also, the “Atrial EC25” value in test [2] (Y75 value (no ‡ mark)) was 490 nM. Besides, the “Ventricular EC25” value in test [3] (Y75 value (no ‡ mark)) came out at 1450 nM.

Turning to `C[C@H](NC(=O)[C@H](C)c1c(C(F)(F)F)c2cc(F)ccc2[nH]c1=O)c1ccc(F)cc1F` (single isomer, unassigned) [compound 58], the “Skeletal EC25” value in test [1] (Y75 value (no ‡ mark)) was found to be 150 nM. For the same molecule, in test [2] (Y75 value (no ‡ mark)), the “Atrial EC25” value was 60 nM. Besides, the “Ventricular EC25” value in test [3] (Y75 value (no ‡ mark)) is 1320 nM.

For `C[C@H](NC(=O)Cc1c(C(F)F)c2c(F)c(F)ccc2[nH]c1=O)c1ccc(F)cc1F` [compound 107], the “Skeletal EC25” value in test [1] (Y75 value (no ‡ mark)) came out at 20 nM. Further, the “Atrial EC25” value in test [2] (Y75 value (no ‡ mark)) is 30 nM. Besides, the “Ventricular EC25” value in test [3] (Y75 value (no ‡ mark)) is 90 nM.

As to `Cc1nccc2[nH]c(=O)c(CC(=O)N[C@H](CO)c3ncc(F)cc3F)c(C)c12` (single isomer, unassigned) [compound 303], in test [1] (Y75 value), the “Skeletal EC25” value stood at 40830 nM. In addition, the “Atrial EC25” value in test [2] (setting [4]) came out at 100000 nM. Besides, the “Ventricular EC25” value in test [3] (Y75 value) came to 100000 nM.

Turning to `Cc1cccc([C@H](C)NC(=O)Cc2c(C)c3c(C)nccc3[nH]c2=O)c1` (single isomer, unassigned) [compound 340], in test [1] (Y75 value), the “Skeletal EC25” value amounted to 100000 nM. The “Atrial EC25” value in test [2] (setting [4]) is 36970 nM. In addition, the “Ventricular EC25” value in test [3] (Y75 value) was 100000 nM.

For `O=C(Cc1cc2cc(F)ccc2[nH]c1=O)N1CC[C@@H]2C[C@H]1c1ccccc12` (single isomer, unassigned) [compound 4503], the “Skeletal EC25” value in test [1] (Y75 value (no ‡ mark)) came out at 1290 nM. For the same molecule, the “Atrial EC25” value in test [2] (Y75 value (no ‡ mark)) was found to be 11520 nM. Moreover, the “Ventricular EC25” value in test [3] (Y75 value (no ‡ mark)) came out at 2980 nM.

Take `COc1nccc2[nH]c(=O)c([C@H](C)C(=O)N[C@@H](C)c3ccc(F)cc3F)c(C(F)(F)F)c12` (single isomer, unassigned) [compound 424]: the “Skeletal EC25” value in test [1] (Y75 value) was 4490 nM. For the same molecule, the “Atrial EC25” value in test [2] (setting [4]) came out at 1910 nM. The “Ventricular EC25” value in test [3] (Y75 value) was determined as 17240 nM.

Turning to `Cc1c(F)ccc2[nH]c(=O)c(C(F)(F)C(=O)N[C@H](C)c3ncc(C#N)cc3F)c(C)c12` (single isomer, unassigned) [compound 4811], the “Skeletal EC25” value in test [1] (Y75 value (no ‡ mark)) stood at 590 nM. Besides, the “Atrial EC25” value in test [2] (Y75 value (no ‡ mark)) amounted to 730 nM. The “Ventricular EC25” value in test [3] (Y75 value (no ‡ mark)) came out at 460 nM.

Turning to `Cc1c([C@@H](Cc2ccccc2)C(=O)N[C@@H](C)c2ccc(F)cc2F)c(=O)[nH]c2ccnc(F)c12` (single isomer, unassigned) [compound 358], the “Skeletal EC25” value in test [1] (Y75 value) stood at 100000 nM. In addition, in test [2] (setting [4]), the “Atrial EC25” value worked out at 23890 nM. Also, in test [3] (Y75 value), the “Ventricular EC25” value stood at 54710 nM.

Consider `C[C@H](NC(=O)Cc1cc2c(F)c(F)ccc2[nH]c1=O)c1ccc(C#N)cn1` [compound 18], for which the “Skeletal EC25” value in test [1] (Y75 value (no ‡ mark)) was determined as 80 nM. The “Atrial EC25” value in test [2] (Y75 value (no ‡ mark)) came to 90 nM. Also, the “Ventricular EC25” value in test [3] (Y75 value (no ‡ mark)) amounted to 260 nM.

On to `C[C@H](NC(=O)Cc1c(C(F)(F)F)c2ncccc2[nH]c1=O)c1ccc(F)cc1F` [compound 417], for which, in test [1] (Y75 value), the “Skeletal EC25” value is 170 nM. Moreover, the “Atrial EC25” value in test [2] (setting [4]) was determined as 9700 nM. Moreover, the “Ventricular EC25” value in test [3] (Y75 value) amounted to 9500 nM.

For the molecule `Cc1c(CC(=O)N[C@@H](C)c2ncc(C#N)cc2F)c(=O)[nH]c2cccc(F)c12` [compound 52], the “Skeletal EC25” value in test [1] (Y75 value (no ‡ mark)) turned out to be 20 nM. For the same molecule, the “Atrial EC25” value in test [2] (Y75 value (no ‡ mark)) was found to be 60 nM. For the same molecule, in test [3] (Y75 value (no ‡ mark)), the “Ventricular EC25” value turned out to be 100 nM.

`Cc1c(CC(=O)N[C@H](C)c2ncc(C#N)cc2F)c(=O)[nH]c2ccc(O)nc12` [compound 165]: the “Skeletal EC25” value in test [1] (Y75 value) was 47800 nM. Besides, in test [2] (setting [4]), the “Atrial EC25” value was 2770 nM. In addition, the “Ventricular EC25” value in test [3] (Y75 value) came out at 100000 nM.

Consider `C[C@H](NC(=O)Cc1c(C#N)c2cc(F)c(F)cc2[nH]c1=O)c1ccc(C#N)cn1` (single isomer, unassigned) [compound 2048], for which the “Skeletal EC25” value in test [1] (Y75 value (no ‡ mark)) came out at 1250 nM. The “Atrial EC25” value in test [2] (Y75 value (no ‡ mark)) worked out at 900 nM. Moreover, the “Ventricular EC25” value in test [3] (Y75 value (no ‡ mark)) came out at 10980 nM.

For the molecule `Cc1c(CC(=O)N[C@@H](c2ccc(F)cc2F)C(C)(C)O)c(=O)[nH]c2ccnc(C#N)c12` (single isomer, unassigned) [compound 279], the “Skeletal EC25” value in test [1] (Y75 value) is 1290 nM. Moreover, the “Atrial EC25” value in test [2] (setting [4]) is 78180 nM. The “Ventricular EC25” value in test [3] (Y75 value) amounted to 100000 nM.

On to `COc1ncc2[nH]c(=O)c(CC(=O)N[C@@H](C)c3ccc(F)cc3F)cc2n1` [compound 497], for which the “Skeletal EC25” value in test [1] (Y75 value) was determined as 100000 nM. Besides, the “Atrial EC25” value in test [2] (setting [4]) was found to be 73300 nM. Further, the “Ventricular EC25” value in test [3] (Y75 value) was determined as 100000 nM.

These data come from patent US12448369B2 (Edgewise Therapeutics, Inc., priority 2023, dated 2025).
